Assay results as given in PubChem BioAssay (NCI).
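Results reflect a 48-hour exposure of cells in 96-well plates to compound at five concentrations. At the TGI there is no net growth.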

What was measured:
Assay in all cases: growth of human tumour cells (NCI), 48 h
[1] = tested on: 786-0 renal
[2] = tested on: A498 renal
[3] = tested on: A549 NSCLC
[4] = tested on: ACHN renal
[5] = tested on: BT-549 breast
[6] = tested on: CAKI-1 renal
[7] = tested on: CCRF-CEM leukemia
[8] = tested on: COLO 205 colon
[9] = tested on: DU-145 prostate
[10] = tested on: EKVX NSCLC
[11] = tested on: HCC-2998 colon
[12] = tested on: HCT-116 colon
[13] = tested on: HCT-15 colon
[14] = tested on: HOP-62 NSCLC
[15] = tested on: HOP-92 NSCLC
[16] = tested on: HS 578T breast
[17] = tested on: HT29 colon
[18] = tested on: IGROV1 ovarian
[19] = tested on: K-562 leukemia
[20] = tested on: KM12 colon
[21] = tested on: LOX IMVI melanoma
[22] = tested on: MALME-3M melanoma
[23] = tested on: MCF7 breast
[24] = tested on: MDA-MB-231 breast
[25] = tested on: MDA-MB-435
[26] = tested on: MDA-N
[27] = tested on: MOLT-4 leukemia
[28] = tested on: NCI-H226 lung
[29] = tested on: NCI-H23 lung
[30] = tested on: NCI-H460 lung
[31] = tested on: NCI-H522 lung
[32] = tested on: NCI/ADR-RES ovarian
[33] = tested on: OVCAR-3 ovarian
[34] = tested on: OVCAR-4 ovarian
[35] = tested on: OVCAR-5 ovarian
[36] = tested on: OVCAR-8 ovarian
[37] = tested on: PC-3 prostate
[38] = tested on: RPMI-8226 leukemia
[39] = tested on: RXF 393 renal
[40] = tested on: SF-268 CNS
[41] = tested on: SF-295 CNS
[42] = tested on: SF-539 CNS
[43] = tested on: SK-MEL-2 melanoma
[44] = tested on: SK-MEL-5 melanoma
[45] = tested on: SN12C renal
[46] = tested on: SNB-19 CNS
[47] = tested on: SNB-75 CNS
[48] = tested on: SR leukemia
[49] = tested on: SW-620 colon
[50] = tested on: T-47D breast
[51] = tested on: TK-10 renal
[52] = tested on: U251 CNS
[53] = tested on: UACC-257 melanoma
[54] = tested on: UACC-62 melanoma
[55] = tested on: UO-31 renal
[56] = tested on: HL-60(TB) leukemia
[57] = tested on: M14 melanoma
[58] = tested on: SK-MEL-28 melanoma
[59] = tested on: SK-OV-3 ovarian

COc1ccc(C(OC(=O)[C@H](O[Si](C)(C)C(C)(C)C)[C@@H](NC(=O)c2ccccc2)c2ccccc2)c2ccc(OC)cc2)cc1
TGI [1]: > 100 µM
TGI [2]: > 100 µM
TGI [3]: > 100 µM
TGI [4]: > 100 µM
TGI [5]: > 100 µM
TGI [6]: > 100 µM
TGI [7]: > 100 µM
TGI [8]: > 100 µM
TGI [9]: > 100 µM
TGI [10]: > 100 µM
TGI [11]: > 100 µM
TGI [12]: > 100 µM
TGI [13]: > 100 µM
TGI [14]: > 100 µM
TGI [15]: > 100 µM
TGI [16]: > 100 µM
TGI [17]: > 100 µM
TGI [18]: > 100 µM
TGI [19]: > 100 µM
TGI [20]: > 100 µM
TGI [21]: > 100 µM
TGI [22]: > 100 µM
TGI [23]: > 100 µM
TGI [24]: > 100 µM
TGI [25]: > 100 µM
TGI [26]: > 100 µM
TGI [27]: > 100 µM
TGI [28]: > 100 µM
TGI [29]: > 100 µM
TGI [30]: > 100 µM
TGI [31]: > 100 µM
TGI [32]: > 100 µM
TGI [33]: > 100 µM
TGI [34]: > 100 µM
TGI [35]: > 100 µM
TGI [36]: > 100 µM
TGI [37]: > 100 µM
TGI [38]: 25.1 µM
TGI [39]: > 100 µM
TGI [40]: > 100 µM
TGI [41]: > 100 µM
TGI [42]: > 100 µM
TGI [43]: > 100 µM
TGI [44]: > 100 µM
TGI [45]: > 100 µM
TGI [46]: > 100 µM
TGI [47]: > 100 µM
TGI [48]: > 100 µM
TGI [49]: > 100 µM
TGI [50]: > 100 µM
TGI [51]: > 100 µM
TGI [52]: > 100 µM
TGI [53]: > 100 µM
TGI [54]: > 100 µM
TGI [55]: > 100 µM

CC1=NN(c2cccc(Cl)c2)C2(C1=Cc1cccs1)C(Cl)C(=O)N2c1nc2ccccc2s1 (centres undefined)
TGI [1]: 29.1 µM
TGI [2]: 43.5 µM
TGI [3]: 63.7 µM
TGI [4]: 50.6 µM
TGI [5]: 49.4 µM
TGI [6]: 84.5 µM
TGI [9]: > 100 µM
TGI [10]: 42.8 µM
TGI [11]: 35.3 µM
TGI [12]: 34.1 µM
TGI [13]: 51.7 µM
TGI [56]: 61 µM
TGI [14]: > 100 µM
TGI [15]: 52.7 µM
TGI [16]: 68.7 µM
TGI [17]: 46 µM
TGI [18]: > 100 µM
TGI [19]: 72.4 µM
TGI [20]: > 100 µM
TGI [21]: 42.1 µM
TGI [57]: > 100 µM
TGI [23]: 69.5 µM
TGI [24]: 41.4 µM
TGI [25]: > 100 µM
TGI [26]: 48.1 µM
TGI [27]: 57.1 µM
TGI [28]: 53.5 µM
TGI [29]: 47.2 µM
TGI [30]: 45.4 µM
TGI [31]: 38.2 µM
TGI [32]: 45.4 µM
TGI [33]: 52 µM
TGI [34]: > 100 µM
TGI [35]: 41.9 µM
TGI [36]: 48.2 µM
TGI [37]: 48.7 µM
TGI [38]: 43.6 µM
TGI [39]: 45.8 µM
TGI [40]: 47.9 µM
TGI [41]: 55.9 µM
TGI [42]: 30.5 µM
TGI [43]: 36.5 µM
TGI [58]: > 100 µM
TGI [44]: 36.2 µM
TGI [47]: 86.3 µM
TGI [48]: 48.5 µM
TGI [49]: > 100 µM
TGI [50]: > 100 µM
TGI [51]: 66.3 µM
TGI [52]: 30.7 µM
TGI [53]: 57.3 µM
TGI [55]: 69.6 µM

Cc1ccc(NC(=O)CC(=O)N2N=C(N3CCCCC3)CC2c2ccccc2)cc1 (centres undefined)
TGI [1]: > 100 µM
TGI [2]: > 100 µM
TGI [3]: > 100 µM
TGI [4]: > 100 µM
TGI [5]: > 100 µM
TGI [6]: > 100 µM
TGI [7]: > 100 µM
TGI [8]: > 100 µM
TGI [9]: > 100 µM
TGI [10]: > 100 µM
TGI [11]: > 100 µM
TGI [12]: > 100 µM
TGI [13]: > 100 µM
TGI [56]: > 100 µM
TGI [14]: > 100 µM
TGI [15]: > 100 µM
TGI [16]: > 100 µM
TGI [17]: > 100 µM
TGI [18]: > 100 µM
TGI [20]: > 100 µM
TGI [21]: > 100 µM
TGI [57]: > 100 µM
TGI [22]: > 100 µM
TGI [23]: > 100 µM
TGI [24]: > 100 µM
TGI [25]: > 100 µM
TGI [26]: > 100 µM
TGI [27]: > 100 µM
TGI [28]: > 100 µM
TGI [29]: > 100 µM
TGI [30]: > 100 µM
TGI [31]: > 100 µM
TGI [32]: > 100 µM
TGI [33]: > 100 µM
TGI [34]: > 100 µM
TGI [35]: > 100 µM
TGI [36]: > 100 µM
TGI [37]: > 100 µM
TGI [39]: > 100 µM
TGI [40]: > 100 µM
TGI [41]: > 100 µM
TGI [43]: > 100 µM
TGI [58]: > 100 µM
TGI [44]: > 100 µM
TGI [45]: > 100 µM
TGI [46]: > 100 µM
TGI [47]: > 100 µM
TGI [48]: > 100 µM
TGI [49]: > 100 µM
TGI [50]: > 100 µM
TGI [51]: > 100 µM
TGI [52]: > 100 µM
TGI [53]: > 100 µM
TGI [54]: > 100 µM
TGI [55]: > 100 µM

CN1C(=O)N/C(=C\c2ccc(S(=O)(=O)N/N=C/c3ccccc3)cc2)C1=O
TGI [1]: > 100 µM
TGI [2]: > 100 µM
TGI [3]: > 100 µM
TGI [4]: > 100 µM
TGI [5]: > 100 µM
TGI [6]: > 100 µM
TGI [7]: > 100 µM
TGI [8]: > 100 µM
TGI [9]: > 100 µM
TGI [10]: > 100 µM
TGI [11]: > 100 µM
TGI [12]: > 100 µM
TGI [13]: > 100 µM
TGI [56]: > 100 µM
TGI [14]: > 100 µM
TGI [15]: 75.5 µM
TGI [16]: > 100 µM
TGI [17]: > 100 µM
TGI [18]: > 100 µM
TGI [19]: > 100 µM
TGI [20]: 82.1 µM
TGI [21]: > 100 µM
TGI [57]: > 100 µM
TGI [22]: > 100 µM
TGI [23]: 68.5 µM
TGI [24]: > 100 µM
TGI [25]: > 100 µM
TGI [26]: > 100 µM
TGI [27]: 83.7 µM
TGI [28]: > 100 µM
TGI [29]: > 100 µM
TGI [30]: 34.4 µM
TGI [32]: > 100 µM
TGI [33]: > 100 µM
TGI [34]: > 100 µM
TGI [35]: > 100 µM
TGI [36]: > 100 µM
TGI [37]: > 100 µM
TGI [38]: > 100 µM
TGI [39]: 98.1 µM
TGI [40]: > 100 µM
TGI [41]: > 100 µM
TGI [43]: > 100 µM
TGI [58]: > 100 µM
TGI [44]: 27.7 µM
TGI [59]: > 100 µM
TGI [45]: > 100 µM
TGI [46]: > 100 µM
TGI [47]: > 100 µM
TGI [48]: > 100 µM
TGI [49]: > 100 µM
TGI [50]: > 100 µM
TGI [51]: > 100 µM
TGI [52]: > 100 µM
TGI [53]: > 100 µM
TGI [54]: > 100 µM
TGI [55]: > 100 µM
